Results taken from PubChem BioAssay AID1996.
≈ marks a conversion by molar mass, not a printed value.

conditions: buffer; pH 7.4; 200.0 µM

solubility kinetic | SMILES
1.4 µg/mL (≈ 4.19 µM) | CCOC(=O)c1sc(=NC(=O)COc2ccccc2)n(C)c1C
5 µg/mL (≈ 20.3 µM) | N#C/C(=C\c1ccc(Cl)cc1)C(=O)NC1CC1
1.5 µg/mL (≈ 5.63 µM) | COc1ccc(NC(=O)c2cc3ccccc3[nH]2)cc1
5.4 µg/mL (≈ 22.4 µM) | COc1ccc(NC(=O)c2ccc(C)cc2)cc1
27.7 µg/mL (≈ 96.3 µM) | O=C(CCCc1ccccc1)NCc1ccc(Cl)cc1
2.3 µg/mL (≈ 7.48 µM) | CCOC(=O)c1cc2c(ccn2C)n1Cc1ccc(C#N)cc1
0.2 µg/mL (≈ 0.765 µM) | O=c1[nH]c2ccccc2nc1-c1c[nH]c2ccccc12
> 34.7 µg/mL | CNc1cc(=O)n(C)c(=O)n1-c1ccccc1
5 µg/mL (≈ 15.7 µM) | O=S(=O)(Nc1ccc(Cl)cc1)c1cccc2cccnc12
46 µg/mL (≈ 146 µM) | Cc1nc2ccc(NC(=O)CSc3ccccc3)cc2s1
36.5 µg/mL (≈ 132 µM) | Cc1ccc(Cl)cc1NC(=O)NCc1ccccn1
14 µg/mL (≈ 43 µM) | CN(Cc1ccccc1F)C(=O)c1sccc1-c1ccccc1
5.8 µg/mL (≈ 19.7 µM) | N/C(=N\OC(=O)Cc1cccs1)c1ccc(Cl)cc1
> 41.7 µg/mL | O=S(=O)(NCc1ccco1)c1ccc(Cl)s1
38.5 µg/mL (≈ 140 µM) | CN(Cc1ccccc1)C(=O)Nc1ccc(Cl)cc1
38.4 µg/mL (≈ 103 µM) | CN1CCN(c2ccc(Cl)cc2NC(=O)/C=C/c2ccc(F)cc2)CC1
6.8 µg/mL (≈ 20.2 µM) | CS(=O)(=O)/C(C#N)=C/c1cccn1S(=O)(=O)c1ccccc1
> 42.8 µg/mL | O=C(COC(=O)c1cnccn1)NC(=O)c1ccccc1
41.6 µg/mL (≈ 148 µM) | CCC(C)NC(=O)c1ccc(C(=O)c2ccccc2)cc1 (stereo not drawn)
> 43.6 µg/mL | CCOC(=O)N1CCC(NC(=O)Cc2ccccc2)CC1
38.9 µg/mL (≈ 124 µM) | O=C(CNCc1cccc(Cl)c1)N1CCc2ccccc2C1

solubility kinetic | SMILES
> 51.4 µg/mL | CN(CCC#N)C(=O)CC(Cc1ccccc1)C1CCOC(C)(C)C1 (stereo not drawn)
> 47.2 µg/mL | CC(C)c1ccc(NC(=S)NNC(=O)c2cccnc2)cc1
3.7 µg/mL (≈ 11.2 µM) | CCCCc1nc(C(N)=O)c2[nH]c(=O)n(-c3ccccc3F)c2n1
37.1 µg/mL (≈ 140 µM) | Nc1c(Cl)ncnc1NCCc1ccc(O)cc1
> 45.2 µg/mL | Cc1cc(SCNC(=O)c2ccccc2)nc(C(C)C)n1
48.3 µg/mL (≈ 140 µM) | CCOc1ccccc1NS(=O)(=O)c1ccc2[nH]c(=O)ccc2c1
> 35.2 µg/mL | CC1(C)CSC(=NCCc2ccccc2)N1
40.4 µg/mL (≈ 131 µM) | O=C1CCC(=O)N1CC(=O)N(c1ccccc1)c1ccccc1
< 0.3 µg/mL | Cc1ccc(-c2nc3ccccc3nc2Cl)cc1
> 47.4 µg/mL | O=C(NS(=O)(=O)Nc1ccccn1)c1c[nH]c2ccccc12
2.3 µg/mL (≈ 7.29 µM) | COc1ccc(CCNC(=O)Nc2cccc([N+](=O)[O-])c2)cc1
55.4 µg/mL (≈ 146 µM) | CS(=O)(=O)NCC(c1cccnc1)N1CCN(c2ccccc2F)CC1 (stereo not drawn)
1.1 µg/mL (≈ 3.51 µM) | Cn1c(=O)n(CCOc2ccc([N+](=O)[O-])cc2)c2ccccc21
6 µg/mL (≈ 20.6 µM) | COc1ccccc1CNC(=O)C(=O)Nc1nccs1
1.2 µg/mL (≈ 3.82 µM) | Cn1c(-c2ccccc2)cnc1NCc1cc(Cl)ccc1O
0.3 µg/mL (≈ 1.15 µM) | Cc1cc(F)ccc1NCc1ccc([N+](=O)[O-])cc1
> 40.7 µg/mL | O=C(NCC1CCCO1)c1cc2ccccc2cc1O (stereo not drawn)
35.1 µg/mL (≈ 131 µM) | O=C(Nc1ccccc1Cl)OCc1cncs1
2.3 µg/mL (≈ 7.22 µM) | O=S(=O)(Cc1ccccc1)N1CCN(c2ncccn2)CC1
> 50.9 µg/mL | CCOc1ccc(CN(C)C(=O)c2cc3ccccc3o2)cc1OC
6.3 µg/mL (≈ 21.8 µM) | N#C/C(=C\C=C\c1ccccc1)C(=O)NCc1cccnc1

The remaining lines, values behind:

SMILES | solubility kinetic
CCOC(=O)c1sc(NC(=O)c2ccc3nc[nH]c3c2)nc1C | 3.7 µg/mL (≈ 11.2 µM)
CN1CCN(C(=S)NC(=O)/C=C/c2cccs2)CC1 | 41.9 µg/mL (≈ 142 µM)
Cc1ccc(NC(=S)N2CCCC2)cc1Cl | 12.5 µg/mL (≈ 49.1 µM)
CCOc1ccc(C(C)NC(=O)c2cccs2)cc1OCC (stereo not drawn) | 11.1 µg/mL (≈ 34.7 µM)
O=C(NCc1ccccc1C(F)(F)F)C1CCC(=O)N(C2CC2)C1 (stereo not drawn) | > 51.1 µg/mL
COCc1c(CCl)cnc(C)c1O | > 30.2 µg/mL
Nc1c(C(=O)O)cnn1-c1ccc([N+](=O)[O-])cc1 | > 37.2 µg/mL
COC(=O)CCC(=O)Nc1nccs1 | > 32.1 µg/mL
Cc1ccnc(SC2CC(=O)N(c3ccc(F)cc3)C2=O)n1 (stereo not drawn) | 38 µg/mL (≈ 120 µM)
CSc1ccccc1C(=O)OCC(=O)N1CCCC1=O | > 44 µg/mL
COCCNC(=O)Cn1nc(C)c([N+](=O)[O-])c1C | > 38.4 µg/mL
CN(Cc1nc(-c2cccs2)no1)CC1(N2CCOCC2)CCCCC1 | 38.7 µg/mL (≈ 103 µM)
COc1ccc(-c2csc(N3CCSCC3)n2)cc1 | 0.3 µg/mL (≈ 1.03 µM)
CCOC(=O)c1cn2ccc(C)cc2n1 | > 30.6 µg/mL
CC(C)c1cccc(C(C)C)c1NC(=O)CN1CCCC1 | > 43.3 µg/mL
C=CCn1c(SCC(C)=O)nc2sc3c(c2c1=O)CCC3 | 4.6 µg/mL (≈ 14.4 µM)
CN(C)C(=S)Nc1ccc(S(=O)(=O)N2CCCCC2)cc1 | 47.1 µg/mL (≈ 144 µM)
N#Cc1cccc(C(=O)Nc2cccc(S(=O)(=O)N3CCCC3)c2)c1 | 5.8 µg/mL (≈ 16.3 µM)
CCCCN1C(=O)c2ccc(C(=O)N(C)CC(=O)Nc3ccc(OCC)c(OCC)c3)cc2C1=O | 17.5 µg/mL (≈ 36.3 µM)
CC1(C)CC2CC(C)(CN2C(=O)COC(=O)c2ccc(O)cc2O)C1 (stereo not drawn) | 23.4 µg/mL (≈ 67.4 µM)
Cc1ccc2c(c1)N(Cc1cccc(F)c1)C(=O)C(C)O2 (stereo not drawn) | 12.7 µg/mL (≈ 44.5 µM)
COc1ccc(NC(=O)Nc2ccc3c(c2)CCC3)c(OC)c1 | < 0.3 µg/mL
COc1cccc(CN2CCc3[nH]c(=S)[nH]c(=O)c3C2)c1 | > 45.5 µg/mL

SMILES | solubility kinetic
CSc1ncccc1C(=O)OCC(=O)NC1CCCC1 | > 44.2 µg/mL
Cc1c(C(=O)NC(C)C2CC3CCC2C3)cccc1[N+](=O)[O-] (stereo not drawn) | 34.3 µg/mL (≈ 113 µM)
CC1CC(=O)N(c2ccc(C(C)C)cc2)C(=O)C1 | 35 µg/mL (≈ 143 µM)
Cc1cccc(C)c1OCC(=O)NCC1CCCO1 (stereo not drawn) | 39.5 µg/mL (≈ 150 µM)
CC(CN1CCOCC1)OC(=O)c1ccccc1.Cl (stereo not drawn) | > 42.9 µg/mL
Cn1cnc2c1c(=O)n(Cc1cccc(Cl)c1)c(=O)n2C | > 45.7 µg/mL
O=C(NN1CCOCC1)c1ccc(Cl)cc1Cl | > 41.3 µg/mL
COc1cc(N=Cc2c(CO)cnc(C)c2O)cc(OC)c1OC | 49.2 µg/mL (≈ 148 µM)
C/C(=N\O)c1cccc(Br)c1 | 18.1 µg/mL (≈ 84.6 µM)
O=C1NC2(CCCCC2)C(=O)N1CCN1C(=O)c2ccccc2C1=O | 40.1 µg/mL (≈ 117 µM)
COc1cc2c(cc1OC)/C(=C/C(=O)c1cccc([N+](=O)[O-])c1)NCC2 | 0.5 µg/mL (≈ 1.41 µM)
CC(=O)Nc1ccc(S(=O)(=O)NC2C3(C)CCC(C3)C2(C)C)cc1 (stereo not drawn) | < 0.4 µg/mL
CC(=O)OC(CC(=O)O)C[N+](C)(C)C.[Cl-] (stereo not drawn) | > 36 µg/mL
CN(C)c1nc(Nc2ccc(Cl)c(Cl)c2)nc(N(C)C)n1 | < 0.1 µg/mL
CCOc1ccccc1C(=O)NCC(=O)OCC(=O)c1c(N)n(C)c(=O)n(C)c1=O | 4.1 µg/mL (≈ 9.8 µM)
Cc1cc(C)nc(Nc2cccc(C(F)(F)F)c2)n1.Cl | 1.8 µg/mL
Cc1nnc(SCC(=O)NC2CCCCC2)n1N | > 40.4 µg/mL
COc1ccc(CCNCc2cccn2C)cc1.Cl | 40.5 µg/mL
CC(C)(C)C(=O)Nc1ccc(S(=O)(=O)Nc2nccs2)cc1 | > 50.9 µg/mL
O=C(CN1C(=O)NC2(CCCC2)C1=O)Nc1ccc(F)c(Cl)c1 | > 51 µg/mL
Cl.N=C1CCCN1c1ccccc1O | 30.6 µg/mL
O=C(CN1C(=O)C(=O)N(CCC2=CCCCC2)C1=O)Nc1ccc(F)cc1F | 6.5 µg/mL (≈ 16.6 µM)
Cc1cc(C(=O)Nc2ccncc2)c(C)o1 | > 32.4 µg/mL
